From patent EP0982318A2, “Enchanced phosphorylation of P53 by ATM in response to DNA damage” (RAMOT UNIVERSITY AUTHORITY FOR APPLIED RESEARCH & …, priority 1998, dated 2000)
pIC50: −log10 of the molar value. Like-named read-outs stand apart in the source and are kept apart here.

Key:
[1] = target: T1, ATM (Homo sapiens, UniProt Q13315); test: ATM immune complex protein kinase assay (inhibition by wortmannin); assay type: biochemical
T1 construct: endogenous in cells; host or cells: cultured cells, lysed and immunoprecipitated with anti-ATM monoclonal antibody
Procedure: (§1) For these experiments, 5X10^6 cells were washed in ice-cold phosphate buffered saline and lysed in 700 µl of 10 mM Tris-HCl (pH 7.5), 150 mM NaCl, 0.2% dodecyl maltoside (Sigma), 5 mM EDTA, 50 mM NaF, 2 mM phenylmethylsulfonylfluoride, 100 µM NaVO4, 2 µg/ml aprotonin (lysis buffer). Freshly prepared cell lysates were incubated for 2 hours at 4°C on a rotator with 10 µl of hybridoma supernatants. Fifty µl of magnetic beads coated with anti-mouse IgG (Dynabeads M-450, DYNAL, Oslo, Norway) were added and the mixture was further rotated at 4°C for 2 hours. Immune complexes were collected using a magnetic stand (DYNAL) and washed 3 times with lysis buffer. For Western blotting analysis, 1/3 of this mixture was loaded on a polyacrylamide-SDS gel which was later blotted onto a nitrocellulose membrane (Nitrocell MFF, Pharmacia Biotech, San Francisco, CA) as previously described [ref 8]. Immune complexes were washed twice with kinase buffer (50 mM Hepes, pH 7.5, 150 mM NaCl, 4 mM MnCl2, 6 mM MgCl2, 10% v/v glycerol, 1 mM DTT, 100 µM NaVO4). Two hundred ng - 1 µg substrate, 10 µCi [32P]ATP and ATP to final concentration of 5 µM were added, and the reaction mixtures were incubated at 30°C for 3-15 minutes. […]
ATM immune complexes were incubated with various concentrations of the drug and washed with the reaction buffer before kinase activity was measured. […]

[2] = tested on: ATM; test: Kinase activity of ATM immunoprecipitated from cells treated with NCS; assay type: cell-based, human
Procedure: as §1, with “NaVO4).” for “NaVO4). Two hundred ng - 1 µg substrate, 10 µCi [32P]ATP and ATP to final concentration of 5 µM were added, and the reaction mixtures were incubated at 30°C for 3-15 minutes.”
Kinase activity was assayed using the p53-N47 substrate. The histogram presents quantitation of the data from the top panel (B). […]
U: untreated cells. The curve presents quantitation of the data from the top panel.

T1 sequence (Q13315 whole entry): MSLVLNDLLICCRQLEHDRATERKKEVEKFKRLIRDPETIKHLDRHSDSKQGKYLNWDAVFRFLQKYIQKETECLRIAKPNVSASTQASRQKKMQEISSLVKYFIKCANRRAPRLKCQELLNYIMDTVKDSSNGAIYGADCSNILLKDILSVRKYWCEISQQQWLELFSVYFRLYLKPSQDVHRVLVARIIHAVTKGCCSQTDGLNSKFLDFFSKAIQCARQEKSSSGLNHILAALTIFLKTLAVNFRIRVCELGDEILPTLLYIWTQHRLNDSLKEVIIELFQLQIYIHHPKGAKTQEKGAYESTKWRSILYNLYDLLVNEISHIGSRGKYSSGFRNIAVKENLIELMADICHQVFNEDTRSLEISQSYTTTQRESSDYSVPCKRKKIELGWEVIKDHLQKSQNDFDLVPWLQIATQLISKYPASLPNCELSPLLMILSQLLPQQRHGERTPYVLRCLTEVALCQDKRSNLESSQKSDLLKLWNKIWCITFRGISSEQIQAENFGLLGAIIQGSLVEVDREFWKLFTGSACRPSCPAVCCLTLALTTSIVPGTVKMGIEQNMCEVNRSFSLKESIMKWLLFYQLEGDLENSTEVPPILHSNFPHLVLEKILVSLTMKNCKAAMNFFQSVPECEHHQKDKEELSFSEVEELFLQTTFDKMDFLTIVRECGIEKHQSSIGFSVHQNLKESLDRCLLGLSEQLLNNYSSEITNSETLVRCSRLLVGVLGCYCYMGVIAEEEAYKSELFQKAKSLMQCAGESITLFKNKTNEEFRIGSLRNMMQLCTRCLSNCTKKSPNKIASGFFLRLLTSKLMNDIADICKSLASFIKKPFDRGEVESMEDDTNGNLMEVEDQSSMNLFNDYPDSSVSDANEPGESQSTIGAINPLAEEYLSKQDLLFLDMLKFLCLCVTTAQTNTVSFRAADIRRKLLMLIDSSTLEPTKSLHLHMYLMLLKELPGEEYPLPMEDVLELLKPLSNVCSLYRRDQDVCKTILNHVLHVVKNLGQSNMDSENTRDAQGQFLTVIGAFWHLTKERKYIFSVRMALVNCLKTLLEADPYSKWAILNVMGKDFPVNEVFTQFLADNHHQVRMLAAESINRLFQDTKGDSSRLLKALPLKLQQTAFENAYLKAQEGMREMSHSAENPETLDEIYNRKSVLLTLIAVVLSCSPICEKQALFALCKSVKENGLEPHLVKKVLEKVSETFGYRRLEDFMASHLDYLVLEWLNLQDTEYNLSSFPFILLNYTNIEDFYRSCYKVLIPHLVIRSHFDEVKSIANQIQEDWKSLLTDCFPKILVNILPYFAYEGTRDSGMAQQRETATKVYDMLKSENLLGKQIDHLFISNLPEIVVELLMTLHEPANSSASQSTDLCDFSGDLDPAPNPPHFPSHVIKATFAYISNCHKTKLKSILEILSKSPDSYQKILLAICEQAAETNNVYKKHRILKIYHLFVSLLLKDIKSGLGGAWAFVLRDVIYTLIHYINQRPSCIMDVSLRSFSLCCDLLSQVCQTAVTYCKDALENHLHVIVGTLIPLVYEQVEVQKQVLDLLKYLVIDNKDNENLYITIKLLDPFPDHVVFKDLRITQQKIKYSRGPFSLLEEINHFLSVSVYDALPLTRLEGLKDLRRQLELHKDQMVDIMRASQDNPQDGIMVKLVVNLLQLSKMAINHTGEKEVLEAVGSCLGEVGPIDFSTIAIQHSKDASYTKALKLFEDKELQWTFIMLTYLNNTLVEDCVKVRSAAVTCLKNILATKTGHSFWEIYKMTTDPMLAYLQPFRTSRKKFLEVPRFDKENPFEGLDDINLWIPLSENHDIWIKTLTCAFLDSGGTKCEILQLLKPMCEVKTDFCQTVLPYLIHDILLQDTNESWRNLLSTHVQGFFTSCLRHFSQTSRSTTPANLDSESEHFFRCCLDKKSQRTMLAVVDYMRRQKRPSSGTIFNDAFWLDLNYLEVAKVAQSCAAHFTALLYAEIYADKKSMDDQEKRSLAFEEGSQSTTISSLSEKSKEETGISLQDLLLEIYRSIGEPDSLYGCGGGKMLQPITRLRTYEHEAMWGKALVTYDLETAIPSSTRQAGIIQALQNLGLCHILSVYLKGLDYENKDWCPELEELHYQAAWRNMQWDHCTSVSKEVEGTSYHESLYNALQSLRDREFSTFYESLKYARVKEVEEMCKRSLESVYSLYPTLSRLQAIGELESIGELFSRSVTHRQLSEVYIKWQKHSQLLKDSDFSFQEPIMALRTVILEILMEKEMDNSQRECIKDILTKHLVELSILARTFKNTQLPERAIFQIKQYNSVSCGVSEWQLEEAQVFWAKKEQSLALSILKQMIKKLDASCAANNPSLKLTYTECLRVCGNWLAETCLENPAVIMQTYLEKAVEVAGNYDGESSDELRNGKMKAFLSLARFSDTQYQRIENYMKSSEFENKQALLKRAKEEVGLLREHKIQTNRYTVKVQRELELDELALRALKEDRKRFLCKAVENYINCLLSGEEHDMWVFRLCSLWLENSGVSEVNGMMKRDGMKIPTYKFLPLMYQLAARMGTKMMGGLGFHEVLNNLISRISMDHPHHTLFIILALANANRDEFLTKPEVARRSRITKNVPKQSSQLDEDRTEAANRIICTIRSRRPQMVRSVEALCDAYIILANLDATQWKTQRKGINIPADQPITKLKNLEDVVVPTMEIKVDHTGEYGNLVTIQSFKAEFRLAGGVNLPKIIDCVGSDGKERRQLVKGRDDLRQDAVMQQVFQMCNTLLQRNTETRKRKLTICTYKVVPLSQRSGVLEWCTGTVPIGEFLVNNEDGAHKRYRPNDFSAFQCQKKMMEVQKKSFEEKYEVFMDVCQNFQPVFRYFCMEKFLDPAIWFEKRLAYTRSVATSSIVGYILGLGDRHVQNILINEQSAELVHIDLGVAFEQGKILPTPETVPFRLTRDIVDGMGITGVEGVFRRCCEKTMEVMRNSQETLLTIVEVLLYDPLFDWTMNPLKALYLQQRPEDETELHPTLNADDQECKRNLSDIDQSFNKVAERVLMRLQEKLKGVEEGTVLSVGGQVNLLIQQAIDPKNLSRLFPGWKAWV

Compound `COC[C@H]1OC(=O)c2coc3c2[C@@]1(C)C1=C(C3=O)[C@@H]2CCC(=O)[C@@]2(C)C[C@H]1OC(C)=O` [wortmannin] has a pIC50 [1] of 7.10 and a pIC50 ([1]; ATM immune complexes exposed to wortmannin for 30 minutes and washed before kinase assay, PHAS-I as substrate, activity normalized to amount of ATM protein, read-out: IC50 (sensitivity of ATM-associated kinase activity to wortmannin)) of 7.00.
neocarzinostatin [NCS] was tested, and the “maximal enhancement of ATM's activity compared to its basal activity” value ([2]; nine experiments, ATM immunoprecipitated from cells after NCS treatment, p53-N47 substrate) was 4.4±0.8 fold and the “time of second enhancement of ATM's activity following treatment” value ([2]; time course after NCS (50 ng/ml), Figure 3B) was “about 120 minutes”.
